Data from patent US7629318B2, “Immunosuppressant compounds, methods and uses related thereto” (priority 2002, dated 2009).
pIC50: −log10 of the molar value. “And” between values parts separate entries of the source, which are not always exact repeats. Equal entries are not always repeated. Numbered stars: 1 amine (or outer) side, 2 acyl side, 3 side chain; on linkers, the order of the positions; unused ones are H or OH. Square brackets hold non-standard residues; d marks the D form. Peptide text beside a SMILES is read from it. * marks the point of attachment. ξ: configuration not given here. Gly(1-amidinopiperidin-4-yl) = N=C(N)N1CCC([C@H](N)C(=O)O)CC1; X1 = CC(C)c1oc([C@H](CO)N[*:1])nc1C(=O)[*:2]; Pro(3R-Ph) = O=C(O)[C@H]1NCC[C@@H]1c1ccccc1; Tic = O=C(O)[C@@H]1Cc2ccccc2CN1; Cha = N[C@@H](CC1CCCCC1)C(=O)O; NHPhenethyl = c1ccc(CCN*)cc1; NMe(benzyl) = CN(Cc1ccccc1)*; ξDisc = O=C(O)C1NCc2ccccc21; Nle = CCCC[C@H](N)C(=O)O; NHBn = c1ccc(CN*)cc1

Legend:
[1] = molecular target: Cathepsin B1 (EC 3.4.22.1 from bovine spleen) (Bos taurus, UniProt P07688); settings: Cathepsin B, 4 h
[2] = molecular target: T1, LG2 (DR1: DRA1*0101 DRB1*0101) cells (Homo sapiens, UniProt P01903+P01911, A100R/D57E/F55L/F60I/F76Y/I96L/L162R/M171V/P40L/Q125E/R42F/V115G/Y59C); assay: Competitive binding to MHC II proteins expressed on LG2 cells; type: cell-based; settings: Cell binding IC50 (uM) LG2 (0101), LG2 (0101)
T1 construct: MHC II Proteins Expressed on PRIESS and LG2 Cells; endogenous in cells; host or cells: LG2 cells
Outline: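 LG2 or Priess cells incubated 4 h at 37° C, 6% CO2 in 1% FCS with 10-fold compound dilutions (series 16 nM-1615 μM) and biotinylated-detectable indicator peptide (16 μM solution added). Lysates captured 2 h at 4° C; bound peptide detected via europium-streptavidin time-resolved fluorescence (ex 340, em 613 nm).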

[3] = system: T-cell proliferation, DR14-LN; settings: for Immunsupressive assays DR14-LN (Max) % Inhibition: maximal inhibition; for pIC50: read-out: Immunsupressive assays DR14-LN (IC50)
[4] = Stability of compounds in human blood plasma; type: in vitro ADME
Outline: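 Compounds at 5 μM final in rat, mouse or human plasma, incubated at 37 °C and sampled at 0, 6 and 24 h. Proteins precipitated with acetonitrile and the supernatant dried and reconstituted in 50% acetonitrile/0.1% TFA. PBS controls run for unstable compounds.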

[5] = molecular target: DR4Dw14 (DRA1*0101 DRB1*0404) (Homo sapiens, UniProt P01903+P01911, A100R/A169T/F76Y/I96L/K127E/L162R/M171V/N62H/P40V/Q125Y/R42H/S133A/S149N/S66Y/V209L/W38E); assay: Competitive binding to MHC-II protein DR4Dw14; settings: 0404; read-out: Protein binding IC50 (nM) 0404
Outline: (§1)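 Each MHC-II allele incubated with compound 16 hours at room temperature in duplicate; controls lacked compound, or both compound and MHC-II. Complexes captured 2 h at 4 °C, bound biotinylated peptide detected via europium-streptavidin and DELFIA enhancement, time-resolved fluorescence read at ex 340/em 613 (615) nm.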

[6] = molecular target: DR1 (DRA1*0101 DRB1*0101) (Homo sapiens, UniProt P01903+P01911, A100R/D57E/F55L/F60I/F76Y/I96L/L162R/M171V/P40L/Q125E/R42F/V115G/Y59C); assay: Competitive binding to MHC-II protein DR1; settings: Protein binding IC50 (nM) 0101, 0101
Outline: as §1

SMILES	Stability (Arbitrary units) Cath B 4 h [1] [Arbitrary units]	IC50 [2]	Immunsupressive assays DR14-LN (Max) % Inhibition [3] [%]	pIC50 [3]	Stability (Arbitrary units) Human 6 h [4] [Arbitrary units]	Stability (Arbitrary units) Human 24 h [4] [Arbitrary units]	IC50 [5] [nM]	IC50 [6] [nM]
CCCC[C@H](NC(=O)[C@@H]1Cc2ccccc2CN1C(=O)[C@@H](NC(=O)[C@H](CC1CCCCC1)NC(C)=O)C1CCN(C(=N)N)CC1)C(=O)N1CC[C@H](c2ccccc2)[C@H]1C(=O)N[C@@H](CO)c1nc(C(=O)N(C)C)c(C(C)C)o1 [Compound P53, Ac-Cha-Gpg-Tic-Nle-βPhPro-[S(oxaz)L]-NMe2] (Ac-[Cha][Gly(1-amidinopiperidin-4-yl)][Tic][Nle][Pro(3R-Ph)][X1]-NMe2)	97	3.5 µM	101	4.49	110	122	180	340
CCCC[C@H](NC(=O)[C@@H]1Cc2ccccc2CN1C(=O)[C@H](CCCNC(=N)N)NC(=O)[C@H](CC1CCCCC1)NC(C)=O)C(=O)N1CC[C@H](c2ccccc2)[C@H]1C(=O)N[C@@H](CO)c1nc(C(=O)N(C)C)c(C(C)C)o1 [Compound P51, Ac-Cha-Arg-Tic-Nle-βPhPro-[S(oxaz)L]-NMe2] (Ac-[Cha]R[Tic][Nle][Pro(3R-Ph)][X1]-NMe2)	103	3 µM	99	4.28	119	129	210	400
CCCC[C@H](NC(=O)C1c2ccccc2CN1C(=O)[C@H](CCCNC(=N)N)NC(=O)[C@H](CC1CCCCC1)NC(C)=O)C(=O)N(C)Cc1ccccc1 (stereo partly drawn) [Compound P72-1, Ac-Cha-Arg-Disc-Nle-N(Me)Bn] (Ac-[Cha]R[ξDisc][Nle]-{NMe(benzyl)})	98	12 µM	95	4.54	99	99	1700	1200
CSCC[C@H](NC(=O)[C@@H]1Cc2ccccc2CN1C(=O)[C@H](CCCNC(=N)N)NC(=O)[C@H](CC1CCCCC1)NC(C)=O)C(=O)N1CC[C@H](c2ccccc2)[C@H]1C(N)=O [Compound P31, Ac-Cha-Arg-Tic-Met-βPhPro-NH2] (Ac-[Cha]R[Tic]M[Pro(3R-Ph)]-NH2)	102	8.5 µM	89	4.01	93	86	850	290
CCCC[C@H](NC(=O)C1c2ccccc2CN1C(=O)[C@@H](NC(=O)[C@H](CC1CCCCC1)NC(C)=O)C1CCN(C(=N)N)CC1)C(=O)N1CC[C@H](c2ccccc2)[C@H]1C(=O)N[C@@H](CO)c1nc(C(=O)N(C)C)c(C(C)C)o1 (stereo partly drawn) [Compound P81-1] (Ac-[Cha][Gly(1-amidinopiperidin-4-yl)][ξDisc][Nle][Pro(3R-Ph)][X1]-NMe2)	105	5 µM	–	4.37	151	162	90	220
CCCC[C@H](NC(=O)[C@@H]1Cc2ccccc2CN1C(=O)[C@@H](NC(=O)[C@H](CC1CCCCC1)NC(C)=O)C1CCN(C(=N)N)CC1)C(=O)N(C)Cc1ccccc1 [Compound P74, Ac-Cha-Gpg-Tic-Nle-N(Me)Bn] (Ac-[Cha][Gly(1-amidinopiperidin-4-yl)][Tic][Nle]-{NMe(benzyl)})	105	6.1 µM	97	4.85	114	125	2200	360
CCCC[C@H](NC(=O)[C@@H]1Cc2ccccc2CN1C(=O)[C@@H](NC(=O)[C@H](CC1CCCCC1)NC(C)=O)C1CCN(C(=N)N)CC1)C(=O)NCCc1ccccc1 [Compound P69, Ac-Cha-Gpg-Tic-Nle-N(H)CH2CH2Ph] (Ac-[Cha][Gly(1-amidinopiperidin-4-yl)][Tic][Nle]-NHPhenethyl)	92	6.2 µM and 8.2 µM	107	4.64	105	93	4500	690
CCCC[C@H](NC(=O)[C@@H]1Cc2ccccc2CN1C(=O)[C@@H](NC(=O)[C@H](CC1CCCCC1)NC(C)=O)C1CCN(C(=N)N)CC1)C(=O)NCc1ccccc1 [Compound P68, Ac-Cha-Gpg-Tic-Nle-N(H)Bn] (Ac-[Cha][Gly(1-amidinopiperidin-4-yl)][Tic][Nle]-NHBn)	52	7.2 µM	105	4.77	85	39	2000	600
